The values below come from US20220241261A1, “COMBINATIONS OF INHIBITORS OF IRAK4 WITH INHIBITORS OF BTK” (Bayer Pharma Aktiengesellschaft, priority 2015, published 2022).

For data set [1], the system named is ABC-DLBCL cell lines TMD-8 and HBL-1 and OCI-LY10. In words: Cell proliferation measurement (Cell Titer Glo, combination, isobolograms). Type of data set: cell-based, human. The settings on record: combination with ibrutinib or RN486 or AVL-292 or CGI-1746; TMD-8, HBL-1, OCI-LY10 cells; 72 h.
Description: The antiproliferative activity of the compounds of the general formula (I) as constituents of the inventive combinations was examined in vitro in human ABC-DLBCL cells. […] After 24 h, cells on one plate (0 h plate) were treated with 30 μl/cavity of CTG solution (Promega Cell Titer Glo (catalogue #G755B and G756B)) and incubated at room temperature for 10 min, and luminescence was measured by means of a VICTOR V (Perkin Elmer), in order to determine cell viability on commencement of treatment. The cells on the test plate were treated with the compounds of the general formula (I) as constituents of the inventive combinations and incubated at 37° C. for 72 h. […] As control, the cells were treated with vehicle (DMSO). After 72 h, the cells were treated with 30 μl/cavity of CTG solution (Promega Cell Titer Glo (catalogue #G755B and G756B)) and incubated at room temperature for 10 min, and luminescence was measured by means of a VICTOR V (Perkin Elmer), in order to determine cell viability at the end of treatment. […] The IC50 values were calculated using a 4-parameter fit. The combinatorial effect to test substances was determined on the basis of the above-described IC50 determination. […] This index allows a quantitative determination of substance interactions. A CI<1, =1, and >1 respectively describe synergistic, additive and antagonistic effects. […]
The subject of data set [2] is secretion of TNF-α in THP-1 cells. In words: TNF-α secretion in THP-1 cells (LPS-triggered, HTRF). The settings on record: Homo sapiens, LPS stimulation, 17 h, read-out: IC50 with respect to the secretion of TNF-α in THP-1 cells. Type of data set: cell-based.
Description: With the aid of this test, it is possible to test substances for their ability to inhibit secretion of TNF-α (tumour necrosis factor alpha) in THP-1 cells (human monocytic acute leukaemia cell line). […] In this test, TNF-α secretion is triggered by incubation with bacterial lipopolysaccharide (LPS).
The cells were incubated at room temperature for 15 min. 2-2.5 of 0.1 μg/ml LPS (Sigma, Escherichia coli 055:B5, Cat. No. L5418) dissolved in cell culture medium (final concentration 0.05 ag/ml) were then dispensed into each well. As a neutral control, cells were treated with 0.05 ag/ml LPS and 1% DMSO and, as inhibitor control, only once with 1% DMSO.
The amount of TNF-α was determined using the TNF-alpha HTRF Detection Kit (Cisbio, Cat No. 62TNFPEB/C). To this end, in each case 2 μl of the detection solution consisting of anti-TNF-α-XL665 conjugate and anti-TNF-α-cryptate conjugate, dissolved in accordance with the manufacturer's instructions in the reconstitution buffer, were added for the HTRF (Homogeneous Time-Resolved Fluorescence) test. After the addition, the mixture was incubated either at room temperature for 3 h or at 4° C. overnight.
The activity of the substances is expressed as the ratio between neutral and inhibitor control in percent. The IC50 values were calculated using a 4-parameter fit.
In data set [3] the test system is human TMD-8 ABC-DLBCL tumours. Conditions: TMD-8 xenograft, C.B-17 SCID mice, ibrutinib 10 mg/kg.
Description: The anti-tumour activity of the compounds of the general formula (I) as constituents of the inventive combinations was examined in murine xenotransplantation models. For this purpose, female C.B-17 SCID mice were implanted subcutaneously with tumour cell lines of human B-cell lymphoma, e.g. TMD-8. At a mean tumour size of 20-30 mm^2, monotherapeutic treatment or treatment in combination with the standard ibrutinib treatment commenced, each of which were administered orally. This was preceded by randomization of the animals. […] The tumour size and the body weight were determined weekly for three weeks. Changes in the body weight were a measure of treatment-related toxicity (>10%=critical, stoppage in treatment until recovery, >20%=toxic, termination). The tumour area was detected by means of an electronic caliper gauge [length (mm)×width (mm)]. The anti-tumour efficacy defined the ratio of the tumour area of treatment versus control [tumour area of the treatment group on day X/tumour area of the control group on day X]. […] Statistical analysis was effected using single-factor ANOVA and comparison with the control group by means of pair-by-pair comparative analysis (Dunnett's test).
TMD-8 tumour cells were implanted subcutaneously on day 0 into female C.B-17 SCID mice. The treatment was started on day 15 at a tumour area of about 26 mm^2. […]
Another data set deals with relapsed DLBCL. The settings on record: phase 2 study; cited from earlier work.

SMILES strings stand for the structures.

With `CC(C)(O)CCn1cc2cc(NC(=O)c3cccc(C(F)F)n3)c(C(C)(C)O)cc2n1` [Example 13, 6-(Difluoromethyl)-N-[2-(3-hydroxy-3-methylbutyl)-6-(2-hydroxypropan-2-yl)-2H-indazol-5-yl]pyridine-2-carboxamide], the “antitumour (anti-proliferative) action of the combination compared to single treatments” value in data set [1] is on record as “distinct rise in antitumour action was almost always recorded”. The IC50 in data set [2] is 100 nM.

With `Cc1nc(C(=O)Nc2cc3cn(CCC(C)(C)O)nc3cc2C(C)(C)O)ccc1F` [Example 19, 5-Fluoro-N-[2-(3-hydroxy-3-methylbutyl)-6-(2-hydroxypropan-2-yl)-2H-indazol-5-yl]-6-methylpyridine-2-carboxamide], the “antitumour (anti-proliferative) action of the combination compared to single treatments” value in data set [1] is “distinct rise in antitumour action was almost always recorded”. Also, in data set [2], the IC50 is 100 nM.

On to `C=CC(=O)N1CCC[C@@H](n2nc(-c3ccc(Oc4ccccc4)cc3)c3c(N)ncnc32)C1` [Ibrutinib, 1-{(3R)-3-[4-amino-3-(4-phenoxyphenyl)-1H-pyrazolo[3,4-d]pyrimidin-1-yl]piperidin-1-yl}prop-2-en-1-one], for which, in data set [3] (QD p.o., Example 11 40 mg/kg, change versus initial body weight), the Max. weight loss was −5%. Further, in data set [3] (oral daily, Example Compound 11 40 mg/kg), the “effect on the tumour growth of TMD-8 (in words)” value is listed as “moderate inhibitory effect”. Moreover, in the data set with relapsed DLBCL, the “patients responded to treatment” value is listed as 40%.
